# Values of other authors, collected in patent US20130345296A1, “Compositions Comprising a Taxane for Coating Medical Devices” (AVIDAL VASCULAR GMBH, priority 2010, published 2013).
# What was measured:
# microtubules = conditions: in vitro studies; Rowinsky et al. (1990)
# [1] = tested on: leukemia, colon, breast, melanoma, sarcomas, and Lewis lung tumor systems; conditions: Tarr et al. (1987); Horwitz (1992)
compound,measurement,setting,value
"CC(=O)O[C@H]1C(=O)[C@@]2(C)[C@H]([C@H](OC(=O)c3ccccc3)[C@]3(O)C[C@H](OC(=O)[C@H](O)[C@@H](NC(=O)c4ccccc4)c4ccccc4)C(C)=C1C3(C)C)[C@]1(OC(C)=O)CO[C@@H]1C[C@@H]2O [taxol, paclitaxel]",concentrations of taxol that stabilize microtubules,microtubules,0.1 to 10.0 µg/mL
same,activity against tumor systems,[1],active
